Source: US20030032580A1, “Use of agonists or antagonists of the 5-HT7 receptor to treat disorders of the bladder” (Synaptic Pharmaceutical Corporation, priority 1999, published 2003)
Where “and” joins values, the source holds several entries; their conditions need not be identical. Equal values may be shown once.

Columns and labels:
[1] = tested on: rat urinary bladder strips; assay: Isolated rat urinary bladder strips: agonist-evoked increase of electrically evoked, nerve-mediated contractions; type: cell-based; settings: for ability to modify the effects of 5-HT: 10 μM; for effect on the magnitude of electrically evoked contractions: agonist alone, electrically stimulated rat bladder strips
Text: 5-HT receptors in the rat urinary bladder which, when activated by serotonin agonists, cause increases in the magnitude of nerve-mediated contractions, were identified and characterized pharmacologically using isolated strips of rat bladder.
Urinary bladders were isolated from female CD rats (Charles Rivers, 250-300 g). The bladder base (lower third) was removed and the detrusor region was opened into a flat sheet by cutting from the basal opening to the apex. This was cut into quadrants, each of which was attached on its lateral edges by two tissue clips and suspended in a 5 ml tissue bath containing Krebs' solution (pH 7.4 37° C.) of the following composition (mM): NaCl (118), KCl (4.9), NaHCO3 (25), MgCl2 (1.2), NaHPO4 (1.0), CaCl2 (2.5), glucose (11) and aerated continuously with 95% O2/5% CO2. Except in initial experiments, prazosin (0.1 μM), idazoxan (0.3 μM), and indomethacin (10 μM) were included routinely in the buffer to block α1- and α2-adrenoceptors and to prevent the formation of prostaglandins, respectively. After allowing 30 min for equilibration, bladder strips were placed under 1.0 g resting tension, readjusted 6 times over the next 30 min. For most experiments contractile responses were evoked by transmural electrical impulses delivered by Grass S-88 (Grass Instruments, City, Mass.) stimulators (single pulses, 0.1 Hz, 1 ms pulse width, 90 V) through a pair of stainless steel electrodes. Contractions were measured using isometric force transducers (Radnotti Instruments, Monrovia, Calif.) and recorded using MacLab software (AD Instruments, Milford, Mass.).
Bladder strips, in Krebs' solution containing antagonist or vehicle, were stimulated at supramaximal voltage until contractions of consistent magnitude were obtained (ca. 30 min). During this period the Krebs' solution was exchanged at 15 min intervals. Cumulative concentration-effect curves were then constructed by administering 5-carboxamidotryptamine (5-CT) or other agonists in 0.5 log M increments. Responses are expressed as a percent of control, and represent agonist-evoked increases in the magnitude of the electrically evoked contractions relative to that in the absence of agonist (“control”, taken as 100%). […] Therefore, only a single agonist concentration-effect curve was constructed in each tissue.
Concentration-effect curves were fitted (Kaleidagraph, Synergy Software, PCS Inc., Reading PA) to 1-site or 2-site models of agonism as represented by the following equations:
(1-site): Effect=Emax[A]^n/[A]^n+EC50^n;
(2-site): Effect=(Emax^a[A]/[A]+EC50^a+(Emax^b[A]/[A]+EC50^b),
where Emax represents the maximum effect of the agonist, [A] is the agonist molar concentration, EC50 is the concentration of agonist eliciting half its maximum effect, n is the slope factor, and the italicized superscripts (a and b) denote values for the first and second phase of the biphasic curve. Antagonist pKB values were determined using the formula described by Furchgott (1972): pKB=log (agonist concentration ratio −1/antagonist concentration [M]. In some instances, pKB values were determined according to the method of Arunlakshana and Schild (1959), in which the slope of the Schild plot was constrained to unity. Concentration ratios for Schild analyses were calculated from mean EC50 values for the agonist in the absence and presence of the antagonist in experiments from n different animals.

[2] = molecular target: T1, 5-HT2B receptor (second phase of the concentration-effect curve to 5-CT in the rat bladder) (Rattus norvegicus, UniProt P30994); assay: Electrically stimulated rat bladder strips: second (low potency) phase of the concentration-effect curve to 5-CT; type: cell-based; settings: for effect on low potency responses to 5-CT: pindolol 1 μM, tropisetron 10 μM, ketanserin 0.1 μM
T1 construct: from tissue; host or cells: rat urinary bladder detrusor strips
T1 sequence (P30994 whole entry): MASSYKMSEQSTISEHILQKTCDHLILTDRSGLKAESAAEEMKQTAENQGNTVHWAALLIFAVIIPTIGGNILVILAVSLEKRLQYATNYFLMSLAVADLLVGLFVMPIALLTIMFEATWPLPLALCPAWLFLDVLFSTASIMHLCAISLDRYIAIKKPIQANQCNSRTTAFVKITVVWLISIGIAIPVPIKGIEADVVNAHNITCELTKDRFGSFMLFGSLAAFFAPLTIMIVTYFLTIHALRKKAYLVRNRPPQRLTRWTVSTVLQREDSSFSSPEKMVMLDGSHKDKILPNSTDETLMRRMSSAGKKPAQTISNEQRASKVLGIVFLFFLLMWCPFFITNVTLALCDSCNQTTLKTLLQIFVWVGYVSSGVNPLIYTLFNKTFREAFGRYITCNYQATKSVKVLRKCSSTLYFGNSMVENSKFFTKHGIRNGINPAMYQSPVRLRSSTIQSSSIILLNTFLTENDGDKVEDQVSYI

[3] = molecular target: T2, 5-HT7 receptor (first phase of the concentration-effect curve to 5-CT in the rat bladder) (Rattus norvegicus, UniProt P32305); assay: Electrically stimulated rat bladder strips: first (high potency) phase of the concentration-effect curve to 5-CT; type: cell-based; settings: for effect on high potency responses to 5-CT: pindolol 1 μM, tropisetron 10 μM, ketanserin 0.1 μM
T2 construct: from tissue; host or cells: rat urinary bladder detrusor strips
T2 sequence (P32305 whole entry): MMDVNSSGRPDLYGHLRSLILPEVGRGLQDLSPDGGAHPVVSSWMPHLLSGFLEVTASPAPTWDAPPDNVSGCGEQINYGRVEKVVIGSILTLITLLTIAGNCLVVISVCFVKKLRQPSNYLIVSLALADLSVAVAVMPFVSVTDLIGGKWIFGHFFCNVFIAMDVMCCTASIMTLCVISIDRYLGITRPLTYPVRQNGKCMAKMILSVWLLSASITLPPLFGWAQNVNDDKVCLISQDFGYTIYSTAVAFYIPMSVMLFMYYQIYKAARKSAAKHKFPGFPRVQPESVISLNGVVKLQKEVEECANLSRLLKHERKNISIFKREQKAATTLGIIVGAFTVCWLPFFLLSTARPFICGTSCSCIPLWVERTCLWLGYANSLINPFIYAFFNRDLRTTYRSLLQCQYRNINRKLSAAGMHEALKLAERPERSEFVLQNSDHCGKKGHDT

[4] = molecular target: cloned rat 5-HT2B receptor (Rattus norvegicus, UniProt P30994); settings: cited from earlier work
Chain of cloned rat 5-HT2B receptor (P30994 whole entry): as the sequence (P30994 whole entry) above

[5] = molecular target: cloned human 5-HT7 receptor (Homo sapiens, UniProt P34969); settings: cited from earlier work; for pK1: cloned human 5-HT7 receptor, references 1 and 4
Chain of cloned human 5-HT7 receptor (P34969 1-445 isoform P34969-2): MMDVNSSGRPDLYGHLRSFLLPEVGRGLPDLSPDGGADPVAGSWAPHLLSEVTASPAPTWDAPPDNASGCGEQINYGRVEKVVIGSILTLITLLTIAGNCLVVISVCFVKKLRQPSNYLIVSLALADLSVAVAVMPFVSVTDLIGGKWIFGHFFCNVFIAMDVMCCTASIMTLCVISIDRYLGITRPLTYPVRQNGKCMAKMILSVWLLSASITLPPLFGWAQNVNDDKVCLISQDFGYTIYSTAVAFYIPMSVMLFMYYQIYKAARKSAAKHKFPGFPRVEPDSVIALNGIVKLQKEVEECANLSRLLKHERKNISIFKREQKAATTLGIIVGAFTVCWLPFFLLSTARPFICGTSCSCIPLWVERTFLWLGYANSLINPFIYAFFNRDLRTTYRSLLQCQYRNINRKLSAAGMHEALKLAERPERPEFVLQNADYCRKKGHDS

5-HT1A = molecular target: T3, 5-HT1A (Homo sapiens, UniProt P08908); settings: Hoyer, 1989; cited from earlier work
T3 sequence (P08908 1-422): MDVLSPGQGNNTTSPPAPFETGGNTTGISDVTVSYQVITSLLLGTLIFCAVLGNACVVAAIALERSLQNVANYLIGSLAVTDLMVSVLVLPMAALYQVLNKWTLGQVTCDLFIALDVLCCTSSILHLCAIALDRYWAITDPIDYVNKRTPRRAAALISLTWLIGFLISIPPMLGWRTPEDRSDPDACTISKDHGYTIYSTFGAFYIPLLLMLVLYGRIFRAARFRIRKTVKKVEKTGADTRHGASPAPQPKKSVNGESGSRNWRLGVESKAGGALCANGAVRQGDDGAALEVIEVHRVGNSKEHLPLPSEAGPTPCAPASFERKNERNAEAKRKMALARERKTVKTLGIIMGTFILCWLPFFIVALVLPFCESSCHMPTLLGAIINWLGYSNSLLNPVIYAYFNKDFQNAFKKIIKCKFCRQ

5-HT1B = 5-HT1B (Rattus norvegicus, UniProt P28564); settings: Hoyer, 1989; Hoyer et al., 1994; cited from earlier work
Chain of 5-HT1B (P28564 whole entry): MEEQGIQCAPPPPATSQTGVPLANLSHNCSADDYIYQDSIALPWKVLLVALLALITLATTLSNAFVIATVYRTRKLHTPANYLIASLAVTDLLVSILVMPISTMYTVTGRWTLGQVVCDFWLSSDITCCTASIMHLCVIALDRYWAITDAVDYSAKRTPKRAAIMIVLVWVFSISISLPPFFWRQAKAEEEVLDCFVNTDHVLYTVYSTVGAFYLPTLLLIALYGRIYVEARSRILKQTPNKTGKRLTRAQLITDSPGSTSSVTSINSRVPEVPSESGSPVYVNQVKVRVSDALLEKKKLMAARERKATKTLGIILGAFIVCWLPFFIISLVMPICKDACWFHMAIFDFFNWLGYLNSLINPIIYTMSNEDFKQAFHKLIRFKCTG

5-HT1E = 5-HT1E (Homo sapiens, UniProt P28566); settings: Adham et al., 1993; cited from earlier work
Chain of 5-HT1E (P28566 whole entry): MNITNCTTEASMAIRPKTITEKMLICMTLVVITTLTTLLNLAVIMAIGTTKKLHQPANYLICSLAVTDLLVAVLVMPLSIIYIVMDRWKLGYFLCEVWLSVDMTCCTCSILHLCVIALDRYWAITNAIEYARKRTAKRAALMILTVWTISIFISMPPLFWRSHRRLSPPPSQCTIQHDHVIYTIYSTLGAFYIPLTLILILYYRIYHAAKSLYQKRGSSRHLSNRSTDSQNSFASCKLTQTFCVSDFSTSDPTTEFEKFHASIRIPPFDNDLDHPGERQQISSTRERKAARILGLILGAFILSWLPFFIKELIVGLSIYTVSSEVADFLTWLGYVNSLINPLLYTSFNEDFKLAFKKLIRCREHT

5-HT2C = molecular target: T4, 5-HT2C (Homo sapiens, UniProt P28335); settings: Hoyer, 1989; Hoyer et al., 1994; cited from earlier work
T4 sequence (P28335 33-458): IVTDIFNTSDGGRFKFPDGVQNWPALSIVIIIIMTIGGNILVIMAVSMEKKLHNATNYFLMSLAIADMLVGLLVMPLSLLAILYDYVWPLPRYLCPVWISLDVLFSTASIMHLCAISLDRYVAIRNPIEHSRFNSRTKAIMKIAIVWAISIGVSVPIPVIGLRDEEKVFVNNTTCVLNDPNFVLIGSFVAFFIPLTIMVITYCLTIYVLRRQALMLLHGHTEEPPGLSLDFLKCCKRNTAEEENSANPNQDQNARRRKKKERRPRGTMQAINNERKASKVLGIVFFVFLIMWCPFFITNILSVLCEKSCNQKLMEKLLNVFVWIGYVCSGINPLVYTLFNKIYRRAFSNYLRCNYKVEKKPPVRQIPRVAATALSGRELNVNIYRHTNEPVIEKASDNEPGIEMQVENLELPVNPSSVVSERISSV

5-HT2A = 5-HT2A (Homo sapiens, UniProt P28223); settings: Hoyer, 1989; Hoyer et al., 1994; cited from earlier work
Chain of 5-HT2A (P28223 whole entry, species assumed): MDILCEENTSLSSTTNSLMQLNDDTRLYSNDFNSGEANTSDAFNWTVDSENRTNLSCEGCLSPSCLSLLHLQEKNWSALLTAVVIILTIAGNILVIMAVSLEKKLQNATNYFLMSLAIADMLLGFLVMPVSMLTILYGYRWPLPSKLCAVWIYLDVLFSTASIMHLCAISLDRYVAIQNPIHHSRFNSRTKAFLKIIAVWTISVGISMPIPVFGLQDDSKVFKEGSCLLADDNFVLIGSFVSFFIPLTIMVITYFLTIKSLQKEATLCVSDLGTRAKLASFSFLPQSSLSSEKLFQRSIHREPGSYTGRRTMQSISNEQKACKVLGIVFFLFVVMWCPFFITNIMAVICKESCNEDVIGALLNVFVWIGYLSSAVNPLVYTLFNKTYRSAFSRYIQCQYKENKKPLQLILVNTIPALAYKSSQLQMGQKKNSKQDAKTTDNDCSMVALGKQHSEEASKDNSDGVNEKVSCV

[6] = molecular target: cloned rat 5-HT7 receptor (Rattus norvegicus, UniProt P32305); settings: references 2 and 3; cited from earlier work
Chain of cloned rat 5-HT7 receptor (P32305 whole entry): as the sequence (P32305 whole entry) above

5-HT1F = molecular target: T5, 5-HT1F (Homo sapiens, UniProt P30939); settings: Adham et al., 1993; cited from earlier work
T5 sequence (P30939 1-366): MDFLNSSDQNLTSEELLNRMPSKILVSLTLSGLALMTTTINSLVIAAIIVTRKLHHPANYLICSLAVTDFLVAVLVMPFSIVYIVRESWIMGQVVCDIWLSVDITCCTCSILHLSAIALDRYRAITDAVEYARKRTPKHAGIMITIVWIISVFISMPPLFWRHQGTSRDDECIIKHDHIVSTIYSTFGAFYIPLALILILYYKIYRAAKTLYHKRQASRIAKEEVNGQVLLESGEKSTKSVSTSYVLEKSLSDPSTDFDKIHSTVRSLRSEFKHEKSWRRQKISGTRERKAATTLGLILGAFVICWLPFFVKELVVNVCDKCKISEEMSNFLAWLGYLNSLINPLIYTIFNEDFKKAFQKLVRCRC

5-HT6 = 5-HT6 (Rattus norvegicus, UniProt P31388); settings: Hoyer et al., 1994; cited from earlier work
Chain of 5-HT6 (P31388 whole entry): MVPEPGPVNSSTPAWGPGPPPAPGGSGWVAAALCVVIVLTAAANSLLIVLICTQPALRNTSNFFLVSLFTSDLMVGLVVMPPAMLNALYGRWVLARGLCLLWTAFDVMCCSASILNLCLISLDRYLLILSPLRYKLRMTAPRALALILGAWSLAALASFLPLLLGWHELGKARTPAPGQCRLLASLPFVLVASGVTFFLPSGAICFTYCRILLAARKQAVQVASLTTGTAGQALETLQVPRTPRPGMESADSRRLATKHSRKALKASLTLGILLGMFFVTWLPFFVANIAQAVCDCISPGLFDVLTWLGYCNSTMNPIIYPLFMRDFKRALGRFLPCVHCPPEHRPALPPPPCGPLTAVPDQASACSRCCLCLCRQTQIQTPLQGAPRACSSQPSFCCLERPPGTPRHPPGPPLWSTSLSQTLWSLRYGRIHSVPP

5-HT1D = settings: Hoyer, 1989; Hoyer et al., 1994; cited from earlier work
5-HT5A = settings: Hoyer et al., 1994; cited from earlier work
[7] = tested on: rat bladder strips (postjunctional response to α,β-methylene-ATP); type: cell-based; settings: 0.1 and 10 μM; 5 minute incubation; tetrodotoxin 0.1 μM; α,β-methylene-ATP 3 μM
[8] = bladder pKB versus published values
[9] = bladder pKB versus published value

## CC(C)n1c(=O)n(C(=O)NC2CC3CCC(C2)N3C)c2ccccc21 (stereo not drawn) [BIMU-8]
[1]
  ability to modify the effects of 5-HT: failure
  effect on the magnitude of electrically evoked contractions: inactive

## c1ccc2c(N3CCNCC3)cccc2c1 [1-NP, 1-(1-naphthyl)piperazine]
[2]
  Kb: 3.16 nM
[2]; 0.1 μM
  shift of the low potency (second) phase of the concentration-effect curve: 100 fold
[2]; [8]
  second-phase affinity greater than affinity for 5-HT1A, 5-HT1B, 5-HT1E, 5-HT2A and 5-HT7 subtypes: at least 10 fold
[2]; second phase, 0.01 to 1.0 μM
  slope of Schild analysis: unit slope
[3]; 0.1 μM
  effect on the high potency (first) phase of the curve: no effect
[3]; 1.0 μM
  rightward shift of the first phase of the response to 5-CT: 6.8 ±0.54 fold
[3]; pKB, inhibition of the first phase of the concentration-effect curve to 5-CT in the rat bladder, antagonists tested in the presence of 0.1 μM 1-NP
  Kb: 158 nM and 251 nM
[4]; Wainscott et al., 1993
  pKB, 5-HT2B: 8.3
[4]; cloned rat 5-HT2B receptor, reference 1 (Wainscott et al., 1993)
  pK1: 8.3-8.7
[5]; Bard et al., 1993
  pKB, 5-HT7: 7.1
[5]
  pK1: 7.1
5-HT1A
  pKB, 5-HT1A: 7.2
5-HT1B
  pKB, 5-HT1B: 6.6
5-HT1E
  pKB, 5-HT1E: 6.7
5-HT2C
  pKB, 5-HT2C: 8.2
5-HT2A
  pKB, 5-HT2A: 7.2

## NCCc1c[nH]c2ccc(O)cc12 [5-HT, 5-hydroxytryptamine]
[1]
  effect on the magnitude of electrically evoked contractions: marked increases

## CN1[C@@H]2CC[C@H]1C[C@@H](OC(=O)c1c[nH]c3ccccc13)C2 [tropisetron]
[2]
  effect on low potency responses to 5-CT: not affected
[3]
  effect on high potency responses to 5-CT: not affected
[6]
  pK1: <4.5

## CN1C[C@@H](NS(=O)(=O)N(C)C)C[C@@H]2c3cccc4c3c(cn4C)C[C@H]21 [mesulergine]
5-HT1A
  pKB, 5-HT1A: 6.2
5-HT1B
  pKB, 5-HT1B: 4.9
5-HT1F
  pKB, 5-HT1F: < 5
5-HT6
  pKB, 5-HT6: 5.8
5-HT2A
  pKB, 5-HT2A: 9.1

## O=C(CCCN1CCC2(CC1)C(=O)NCN2c1ccccc1)c1ccc(F)cc1 [spiperone]
[3]; [9]
  first-phase affinity greater than that for the 5-HT2C receptor subtype: ~30 fold
  first-phase affinity lower than that for the 5-HT2A receptor subtype: ~30 fold
[3]; [8]
  first-phase affinity greater than that for 5-HT1B, 5-HT1D, 5-HT5A and 5-HT2B receptor subtype: at least 100 fold
5-HT1B
  pKB, 5-HT1B: 4.4
5-HT1D
  pKB, 5-HT1D: 4.8
5-HT2C
  pKB, 5-HT2C: 5.9
5-HT5A
  pKB, 5-HT5A: 5.6

## COc1ccc2[nH]cc(CCN)c2c1 [5-MeOT]
[1]
  effect on the magnitude of electrically evoked contractions: mimicked

## CCCN(CCC)CCc1c[nH]c2ccc(C(N)=O)cc12 [DP-5-CT]
[1]
  effect on the magnitude of electrically evoked contractions: mimicked

## CSc1ccc2c(c1)C(N1CCN(C)CC1)Cc1ccccc1S2 (stereo not drawn) [methiothepin]
5-HT1B
  pKB, 5-HT1B: 7.3
5-HT1D
  pKB, 5-HT1D: 7.3
5-HT1E
  pKB, 5-HT1E: 6.7
5-HT1F
  pKB, 5-HT1F: 6.2
5-HT5A
  pKB, 5-HT5A: 7.0

## O=C(c1ccc(F)cc1)C1CCN(CCn2c(=O)[nH]c3ccccc3c2=O)CC1 [ketanserin]
[2]
  effect on low potency responses to 5-CT: not affected
[3]
  effect on high potency responses to 5-CT: not affected
[6]
  pK1: 5.6

## CC(N)Cc1c[nH]c2ccc(O)cc12 (stereo not drawn) [α-Me-5-HT, α-methyl-5-hydroxytryptamine]
[1]
  effect on the magnitude of electrically evoked contractions: mimicked

## CC(C)n1cc2c3c(cccc31)C1C[C@@H](C(=O)N[C@H]3CCC[C@H]3O)CN(C)[C@@H]1C2 (stereo partly drawn) [LY215840]
[3]; inhibition of the first phase of the concentration-effect curve to 5-CT in the rat bladder, antagonists tested in the presence of 0.1 μM 1-NP
  pKB: 8.2
[5]
  pK1: 7.8

## CC(C)NCC(O)COc1cccc2[nH]ccc12 (single isomer, unassigned) [pindolol]
[2]
  effect on low potency responses to 5-CT: not affected
[3]
  effect on high potency responses to 5-CT: not affected
[6]
  pK1: <6

## CCCN(CCC)C1CCc2cccc(O)c2C1 (stereo not drawn) [8-OH-DPAT]
[1]
  ability to modify the effects of 5-HT: failure
  effect on the magnitude of electrically evoked contractions: inactive

## NCCc1c[nH]c2ccc(C(N)=O)cc12 [5-CT, 5-carboxamidotryptamine]
[1]
  difference in EC50 values between first and second phase: 100 fold
  effect on the magnitude of electrically evoked contractions: mimicked
[2]
  EC50: 158 nM
[3]
  EC50: 1.58 nM
[7]
  effect on the magnitude of a subsequent contraction to α,β-methylene-ATP: failed to significantly modify
